Measured values as given in article PMC8040040 (ACS Medicinal Chemistry Letters, 2021).
Entries after “also recorded” stand apart in the source; their conditions may differ.

Legend:
[1] = target: T1, ligated RORγt (covalent orthosteric probe at Cys320) (Homo sapiens, UniProt P51449); type: biochemical
T1 sequence (P51449 265-518): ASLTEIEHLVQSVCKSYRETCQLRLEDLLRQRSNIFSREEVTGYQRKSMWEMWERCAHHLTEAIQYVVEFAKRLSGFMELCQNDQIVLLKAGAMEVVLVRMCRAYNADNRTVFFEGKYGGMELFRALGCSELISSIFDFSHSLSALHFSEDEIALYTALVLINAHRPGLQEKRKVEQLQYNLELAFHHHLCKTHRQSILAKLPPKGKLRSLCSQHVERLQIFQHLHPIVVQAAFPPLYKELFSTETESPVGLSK

RORγt LBD = target: T2, RORγt LBD (Homo sapiens, UniProt P51449); assay: TR-FRET coactivator recruitment assay, dose-response of covalent probes; type: biochemical; details: TR-FRET dose-response curve plateau
T2 sequence (P51449 265-518): T1 sequence (P51449 265-518)

RORγt Cys320Ala mutant = target: T3, RORγt Cys320Ala mutant (Homo sapiens, UniProt P51449, C320A); assay: Ligation to RORγt Cys320Ala mutant, Q-TOF MS; type: binding
T3 sequence (P51449 265-507 C320A): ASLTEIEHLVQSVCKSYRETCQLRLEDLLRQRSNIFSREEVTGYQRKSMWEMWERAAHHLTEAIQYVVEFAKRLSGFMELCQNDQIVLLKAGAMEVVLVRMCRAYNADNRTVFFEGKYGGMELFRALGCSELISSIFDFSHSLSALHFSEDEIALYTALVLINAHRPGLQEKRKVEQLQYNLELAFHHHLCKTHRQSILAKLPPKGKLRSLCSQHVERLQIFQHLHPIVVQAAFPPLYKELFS

PPARγ = target: T4, PPARγ (Homo sapiens, UniProt P37231); assay: Ligation; type: binding
T4 sequence (P37231 1-505): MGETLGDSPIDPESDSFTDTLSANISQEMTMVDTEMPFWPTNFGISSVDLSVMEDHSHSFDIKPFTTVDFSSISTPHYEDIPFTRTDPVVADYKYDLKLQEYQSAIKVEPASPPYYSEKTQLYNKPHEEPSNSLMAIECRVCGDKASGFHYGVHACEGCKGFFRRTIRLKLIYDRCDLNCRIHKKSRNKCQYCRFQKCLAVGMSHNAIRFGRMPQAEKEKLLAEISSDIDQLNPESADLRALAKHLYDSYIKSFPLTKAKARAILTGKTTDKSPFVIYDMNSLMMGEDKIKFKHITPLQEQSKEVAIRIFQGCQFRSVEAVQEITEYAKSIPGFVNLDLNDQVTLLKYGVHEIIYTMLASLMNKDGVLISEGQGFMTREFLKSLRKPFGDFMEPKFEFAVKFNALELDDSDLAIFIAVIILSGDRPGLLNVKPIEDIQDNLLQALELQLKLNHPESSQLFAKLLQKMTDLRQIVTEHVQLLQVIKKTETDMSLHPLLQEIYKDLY

Row | SMILES | occlusion of the orthosteric site by the ligated probe [1] | Profile (full/partial inverse agonistic character) (RORγt LBD) | further results
1 | Cc1ccccc1NC(=O)c1cc([N+](=O)[O-])ccc1Cl [Compound 9] | Clear occlusion of the orthosteric site | partial inverse agonistic behavior; also recorded: Partial inv. ago | –
2 | O=C(Nc1ccsc1)c1cc([N+](=O)[O-])ccc1Cl [Compound 11] | – | full inverse agonistic behavior; also recorded: Full inv. ago | –
3 | O=C(Nc1ccccc1)c1cc([N+](=O)[O-])ccc1Cl [Compound 1] | occlusion of the orthosteric binding site | – | Profile (full/partial inverse agonistic character) (RORγt LBD; listed as 1 GW9662): Full inv. ago.; Profile (full/partial inverse agonistic character) (RORγt LBD; listed as GW9662): full inverse agonist; Ligation to RORγt Cys320Ala mutant (RORγt Cys320Ala mutant): No ligation
4 | CNC(=O)c1cc([N+](=O)[O-])ccc1Cl [Compound 2] | – | – | Ligation to PPARγ (PPARγ): fully ligate
